# Results taken from patent US20240374585A1, “EPITHELIAL SODIUM CHANNEL (ENAC) INHIBITOR CONJUGATES AND METHODS FOR USE THEREOF” (Lung Therapeutics, Inc., priority 2021, published 2024).
# Where two headings read alike, the source gives them in different places. Where a SMILES comes first, the peptide text is derived from it. [ ]: non-standard residue; d: D form. The star is where a group is joined. X2 = NC(=NC(=O)c1nc(Cl)c(N)nc1N)NCCCCN1C(=O)CC(*)C1=O; Hyp = O=C(O)[C@@H]1C[C@@H](O)CN1; Ahx = NCCCCCC(=O)O
# Biological target: T1, ENaC (Homo sapiens, UniProt P37088+P51168+P51170)
# T1 construct: Primary NHBE cells were isolated from bronchi of normal healthy patients; endogenous in cells; host or cells: primary normal human bronchial epithelial (NHBE) cells, differentiated at air-liquid interface
# T1 sequence (P37088 1-669): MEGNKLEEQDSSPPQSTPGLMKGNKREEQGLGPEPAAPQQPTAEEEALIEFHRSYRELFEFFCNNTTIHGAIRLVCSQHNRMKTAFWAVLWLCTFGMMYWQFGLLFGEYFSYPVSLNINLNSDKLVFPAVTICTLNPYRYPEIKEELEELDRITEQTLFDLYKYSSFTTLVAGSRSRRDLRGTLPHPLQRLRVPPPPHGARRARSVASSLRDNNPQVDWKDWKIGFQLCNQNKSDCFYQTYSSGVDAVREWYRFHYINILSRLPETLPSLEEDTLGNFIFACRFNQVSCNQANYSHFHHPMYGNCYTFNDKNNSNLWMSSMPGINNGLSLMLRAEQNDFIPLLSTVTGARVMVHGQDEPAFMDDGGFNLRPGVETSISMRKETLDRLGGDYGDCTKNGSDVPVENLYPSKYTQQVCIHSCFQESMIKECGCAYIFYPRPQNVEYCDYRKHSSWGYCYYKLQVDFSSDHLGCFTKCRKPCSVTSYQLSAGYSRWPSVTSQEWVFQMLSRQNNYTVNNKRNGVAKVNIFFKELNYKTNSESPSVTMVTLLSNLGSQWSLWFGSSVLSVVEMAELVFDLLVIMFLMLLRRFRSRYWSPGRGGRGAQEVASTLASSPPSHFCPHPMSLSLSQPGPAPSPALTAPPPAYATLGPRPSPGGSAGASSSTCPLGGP
# T1 sequence (P51168 1-640): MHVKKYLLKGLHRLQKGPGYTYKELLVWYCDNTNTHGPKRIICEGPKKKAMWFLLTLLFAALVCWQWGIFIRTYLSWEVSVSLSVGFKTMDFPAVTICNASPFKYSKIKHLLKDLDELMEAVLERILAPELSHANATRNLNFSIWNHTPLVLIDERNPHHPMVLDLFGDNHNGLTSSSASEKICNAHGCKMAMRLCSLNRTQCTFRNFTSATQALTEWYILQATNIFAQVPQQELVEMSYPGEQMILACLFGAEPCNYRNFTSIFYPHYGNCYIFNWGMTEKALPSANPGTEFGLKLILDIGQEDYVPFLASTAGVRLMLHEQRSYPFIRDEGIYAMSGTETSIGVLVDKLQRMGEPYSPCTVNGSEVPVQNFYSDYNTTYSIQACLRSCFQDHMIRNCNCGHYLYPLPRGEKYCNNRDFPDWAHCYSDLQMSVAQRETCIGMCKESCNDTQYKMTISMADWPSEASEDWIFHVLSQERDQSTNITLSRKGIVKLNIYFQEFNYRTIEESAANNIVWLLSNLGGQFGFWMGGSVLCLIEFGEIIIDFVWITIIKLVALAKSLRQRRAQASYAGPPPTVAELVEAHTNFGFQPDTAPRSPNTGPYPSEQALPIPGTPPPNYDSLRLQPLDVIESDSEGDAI
# T1 sequence (P51170 1-649): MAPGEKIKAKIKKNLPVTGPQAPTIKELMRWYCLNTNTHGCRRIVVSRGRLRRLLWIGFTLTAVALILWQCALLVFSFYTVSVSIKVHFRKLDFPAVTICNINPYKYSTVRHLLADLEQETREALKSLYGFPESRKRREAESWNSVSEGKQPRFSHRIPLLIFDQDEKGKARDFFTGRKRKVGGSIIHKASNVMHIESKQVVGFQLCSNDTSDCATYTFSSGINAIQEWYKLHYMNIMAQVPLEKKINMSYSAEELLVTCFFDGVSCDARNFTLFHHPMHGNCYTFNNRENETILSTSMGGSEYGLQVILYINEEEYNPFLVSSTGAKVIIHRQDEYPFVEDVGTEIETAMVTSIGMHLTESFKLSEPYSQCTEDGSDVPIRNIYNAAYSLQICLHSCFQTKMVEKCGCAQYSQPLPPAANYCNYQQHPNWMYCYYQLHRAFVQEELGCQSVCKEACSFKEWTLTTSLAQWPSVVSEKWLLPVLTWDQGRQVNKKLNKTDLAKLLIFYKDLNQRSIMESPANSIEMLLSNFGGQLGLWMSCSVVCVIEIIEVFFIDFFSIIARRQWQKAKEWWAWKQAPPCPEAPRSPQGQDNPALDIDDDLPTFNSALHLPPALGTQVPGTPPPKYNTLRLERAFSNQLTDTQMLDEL
# Test: ENaC inhibition in NHBE cell monolayers, Ussing epithelial voltage clamp (short circuit current)
# Format: cell-based
# Conditions: for fold more potent than amiloride (ENaC inhibition): relative to amiloride IC50
# Procedure: The objective of this study was to measure the ability of the illustrative conjugates to modulate ion transport function of ENAC in normal human bronchial epithelial (NHBE) cell monolayers. Sodium transport function of ENAC expressed in NHBE monolayers was evaluated using an Ussing epithelial voltage clamp apparatus. See, Hirsh et al., J. Pharmacol. Exp. Ther. 2008; 325:77-88, hereby incorporated by reference in its entirety.
# Primary NHBE cells were isolated from bronchi of normal healthy patients, expanded in Lonza media (BEGM™ BulletKit™), and plated on Snapwell™ filters to form an epithelium. Cells on Snapwell™ inserts were grown for at least 21 days in Vertex Differentiation media and exposed to an air-liquid interface to promote differentiation. At least one day before the assay, mucous overlaying the apical surface was removed from the inserts by incubating the apical surface for about 30 minutes with ≥200 μL of differentiation media followed by aspiration of the mucous film and media.
# The NHBE cell monolayers grown on Snapwell™ filter inserts were transferred to Physiologic Instruments Ussing recording chambers (Physiologic Instruments, Inc., San Diego, CA) and superfused with HB-PS. One or more 6-channel or 8-channel Physiologic Instruments VCC MC6 or VCC MC8 epithelial voltage clamps were used in combination to record short circuit current (ISC) from up to 24 inserts simultaneously. Air was used to operate the bubble lifts to rapidly circulate solutions in each Ussing chamber half and to aerate the monolayers.
# Inserts were voltage clamped at 0 m V to record the ISC. Bumetanide (20 μM) was added to the basolateral side of all inserts. Test conjugates prepared as DMSO (Sigma-Aldrich) stocks were added cumulatively and sequentially to the apical Ussing chamber halves with at least 3 minutes between each addition.
# Time and volume matched additions of DMSO to the basolateral side of the test conjugate treated inserts and both sides of the vehicle treated inserts was made to maintain osmotic balance across the epithelia. Transepithelial resistance was monitored with small voltage steps. The assay was performed at 35±2° C.
# ENaC current at each test conjugate concentration was calculated as the peak current change produced by each test conjugate treated insert minus the mean current change produced by the corresponding DMSO additions to time-matched vehicle controls inserts. Cumulative difference data was fit to a Hill equation of the form: […]
# Where IEnaC is the ISC peak difference current measured at each test conjugate concentration [Test].
# [1] = NHBE cell monolayers, Ussing chamber, apical addition, 35±2° C., read-out: IC50 for the ENaC inhibition
# [2] = NHBE cell monolayers, Ussing chamber, apical addition, 35±2° C.
compound,measurement,setting,value
"CC(=O)N[C@@H](CCCCn1cc(CCCCCNC(N)=NC(=O)c2nc(Cl)c(N)nc2N)nn1)C(=O)NCCCCCC(=O)N[C@H](C(=O)N[C@@H](CO)C(=O)N[C@@H](CCCCN)C(=O)N[C@@H](CCCNC(=N)N)C(=O)N[C@@H](CCCNC(=N)N)C(N)=O)C(C)C [Conjugate 6, Ac-(AmilCC1-AzK)-Ahx-VSKRR-NH2]",IC50,[1],0.09 µM
CC(=O)N[C@@H](CCCCn1cc(CCCCCNC(N)=NC(=O)c2nc(Cl)c(N)nc2N)nn1)C(=O)NCCCCCC(=O)N[C@@H](C)C(=O)N[C@@H](CO)C(=O)N[C@@H](Cc1c[nH]cn1)C(=O)N[C@@H](CC(C)C)C(=O)N[C@@H](CCCNC(=N)N)C(=O)N[C@@H](CCCCN)C(=O)N[C@@H](CC(C)C)C(=O)N[C@@H](CCCNC(=N)N)C(=O)N[C@@H](CCCCN)C(=O)N[C@@H](CCCNC(=N)N)C(=O)N[C@@H](CC(C)C)C(=O)N[C@@H](CC(C)C)C(N)=O [Conjugate 5],IC50,,0.03 µM
same,fold more potent than amiloride (ENaC inhibition),,about 10 fold
CC(=O)N[C@@H](CCCCNC(N)=NC(=O)c1nc(Cl)c(N)nc1N)C(=O)NCCCCCC(=O)N[C@@H](C)C(=O)N[C@@H](CO)C(=O)N[C@@H](Cc1c[nH]cn1)C(=O)N[C@@H](CC(C)C)C(=O)N[C@@H](CCCNC(=N)N)C(=O)N[C@@H](CCCCN)C(=O)N[C@@H](CC(C)C)C(=O)N[C@@H](CCCNC(=N)N)C(=O)N[C@@H](CCCCN)C(=O)N[C@@H](CCCNC(=N)N)C(=O)N[C@@H](CC(C)C)C(=O)N[C@@H](CC(C)C)C(N)=O [Conjugate 2] (HELM PEPTIDE1{[ac].[NC(=NC(=O)c1nc(Cl)c(N)nc1N)NCCCC[C@H](N[*:1])C(=O)[*:2]].[O=C(CCCCCN[*:1])[*:2]].A.S.H.L.R.K.L.R.K.R.L.L.[am]}$$$$V2.0),IC50,[1],0.08 µM
"CC(=O)N[C@@H](CCCCNC(N)=NC(=O)c1nc(Cl)c(N)nc1N)C(=O)NCCCCCC(=O)N[C@H](C(=O)N[C@@H](CO)C(=O)N[C@@H](CCCCN)C(=O)N[C@@H](CCCNC(=N)N)C(=O)N[C@@H](CCCNC(=N)N)C(N)=O)C(C)C [Conjugate 3, Ac-(AmilAC)K-(Ahx)-VSKRR-NH2] (HELM PEPTIDE1{[ac].[NC(=NC(=O)c1nc(Cl)c(N)nc1N)NCCCC[C@H](N[*:1])C(=O)[*:2]].[O=C(CCCCCN[*:1])[*:2]].V.S.K.R.R.[am]}$$$$V2.0)",IC50,[1],0.05 µM
same,fold more potent than amiloride (ENaC inhibition),,about 10 fold
"CC[C@H](C)[C@H](NC(=O)[C@H](Cc1ccc(O)cc1)NC(=O)[C@@H]1C[C@@H](O)CN1C(=O)[C@H](C)NC(=O)[C@H](CC(C)C)NC(=O)[C@H](C)NC(=O)CCCCCNC(=O)[C@H](CSC1CC(=O)N(CCCCNC(N)=NC(=O)c2nc(Cl)c(N)nc2N)C1=O)NC(C)=O)C(N)=O (some centres unmarked) [Conjugate 10, Ac-(AmilTC-C)-Ahx-ALA(Hyp)YI-NH2] (Ac-C(X2)[Ahx]ALA[Hyp]YI-NH2)",IC50,,0.49 µM
"Ac-K-(Ahx)-VSKRR-NH2 (Ac-K[Ahx]VSKRR-NH2) [Peptide only Control 3, Peptide only control, reference compound]",IC50 for the ENaC inhibition,[2],Did not inhibit
"Ac-K-(Ahx)-ASHLRKLRKRLL-NH2 (Ac-K[Ahx]ASHLRKLRKRLL-NH2) [Peptide only Control 2, Peptide only control, reference compound]",IC50 for the ENaC inhibition,[2],Did not inhibit
"CC[C@H](C)[C@H](NC(=O)[C@H](Cc1ccc(O)cc1)NC(=O)[C@@H]1C[C@@H](O)CN1C(=O)[C@H](C)NC(=O)[C@H](CC(C)C)NC(=O)[C@H](C)NC(=O)CCCCCNC(=O)[C@H](Cc1cn(CCCCNC(N)=NC(=O)c2nc(Cl)c(N)nc2N)nn1)NC(C)=O)C(N)=O [Conjugate 7, Ac-(AmilCC2-Pgy)-Ahx-ALA(Hyp)YI-NH2]",IC50,[1],0.79 µM
"CC[C@H](C)[C@H](NC(=O)[C@H](Cc1ccc(O)cc1)NC(=O)[C@@H]1C[C@@H](O)CN1C(=O)[C@H](C)NC(=O)[C@H](CC(C)C)NC(=O)[C@H](C)NC(=O)CCCCCNC(=O)[C@H](CCCCn1cc(CCCCCNC(N)=NC(=O)c2nc(Cl)c(N)nc2N)nn1)NC(C)=O)C(N)=O [Conjugate 4, Ac-(AmilCC1-AzK)-Ahx-ALA(Hyp)YI-NH2]",IC50,[1],0.24 µM
"Ac-K-(Ahx)-ALA(Hyp)YI-NH2 (Ac-K[Ahx]ALA[Hyp]YI-NH2) [Peptide only Control 1, Peptide only control, reference compound]",IC50 for the ENaC inhibition,[2],Did not inhibit
CC(=O)N[C@@H](CSC1CC(=O)N(CCCCNC(N)=NC(=O)c2nc(Cl)c(N)nc2N)C1=O)C(=O)NCCCCCC(=O)N[C@@H](C)C(=O)N[C@@H](CO)C(=O)N[C@@H](Cc1c[nH]cn1)C(=O)N[C@@H](CC(C)C)C(=O)N[C@@H](CCCNC(=N)N)C(=O)N[C@@H](CCCCN)C(=O)N[C@@H](CC(C)C)C(=O)N[C@@H](CCCNC(=N)N)C(=O)N[C@@H](CCCCN)C(=O)N[C@@H](CCCNC(=N)N)C(=O)N[C@@H](CC(C)C)C(=O)N[C@@H](CC(C)C)C(N)=O (some centres unmarked) [Conjugate 11] (Ac-C(X2)[Ahx]ASHLRKLRKRLL-NH2),IC50,,0.07 µM
"CC[C@H](C)[C@H](NC(=O)[C@H](Cc1ccc(O)cc1)NC(=O)[C@@H]1C[C@@H](O)CN1C(=O)[C@H](C)NC(=O)[C@H](CC(C)C)NC(=O)[C@H](C)NC(=O)CCCCCNC(=O)[C@H](CCCCNC(N)=NC(=O)c1nc(Cl)c(N)nc1N)NC(C)=O)C(N)=O [Conjugate 1, Ac-(AmilAC)K-(Ahx)-ALA(Hyp)YI-NH2] (HELM PEPTIDE1{[ac].[NC(=NC(=O)c1nc(Cl)c(N)nc1N)NCCCC[C@H](N[*:1])C(=O)[*:2]].[O=C(CCCCCN[*:1])[*:2]].A.L.A.[Hyp].Y.I.[am]}$$$$V2.0)",IC50,[1],0.29 µM
